From patent US20250195523A1, “ORGANIC MOLECULES FOR TREATING MYELIN PATHOLOGIES” (ICM (INSTITUT DU CERVEAU ET DE LA MOELLE ÉPINIÈRE), priority 2022, published 2025)

Legend:
[1] = tested on: primary OPCs purified by magnetic cell sorting (MACS) from neonatal cortices; test: Primary OPC cultures purified by MACS, morphological complexity of OLs; assay type: cell-based, mice; settings: OPCs treated for two days; compared to vehicle; FIG. 2B
Procedure: Brains were collected from PLPGFP and P4 Swiss mice […] and washed 3 times in PBS 1× (Invitrogen) with 1% of penicillin/streptomycin (Sigma). Cortex and corpus callosum were dissected and dissociated using neural tissue dissociation kit (T) (Miltenyi biotec) and with dissociator (gentleMACS Octo Dissociator, Miltenyi Biotec). OPC magnetic cell sorting was performed using anti-PDGFRα-coupled-beads (CD140a-PDGFRα MicroBead Kit, Miltenyi biotec) and MultiMACS Cell24 Separator Plus (Miltenyi biotec). Cells were collected in PBS and amplified for 2 days in a proliferating medium (with growth factors IGF, EGF, FGF, and PDGFα). Then, 40.000 cells were plated in 24 well plates adherent on coverslips, beforehand coated with poly-ornithine (Merck) diluted in 4 volumes of H2O and washed 3 times. Successively, for 2 days of proliferation and differentiation, medium was added with drugs at 250 nM, 500 nM and 750 nM, and their respective vehicles (DMSO, PBS). Cells were fixed in 4% PBS-paraformaldehyde (thermo fisher) for 10 minutes and washed 3 times in PBS-1×.
For coated-coverslip, blocking was performed in a moist chamber for 30 mn at room temperature (RT) in the blocking buffer (0.05% Triton X-100/10% normal goat serum/PBS). Then, coverslip were incubated for 30 mn with the following primary antibodies at RT. Rat anti-PDGFRα (1:250, BD Biosciences); Mouse anti-CNPase (mlgG1, 1:250; Millipore); Rabbit anti-Btub (1:1000; BABCO); Chicken anti-GFAP (1:500, Avelabs), Mouse anti-MBP (mlgG1, 1:150; Abcam); Rabbit anti-Sox10 (1:1000; Proteintech). Following 3 washing in 0.05% Triton X-100/PBS, coverslips were incubated 30 min at RT in dark with appropriate secondary antibodies conjugated with Alexa Fluor 488, 594 and 647 (1:1000; Molecular Probes or Thermo Fisher) and Dapi (1:5000 from working solution at 5 mg/ml; Life Technologies; D1306). Coverslips were washed 3 times in 0.05% Triton X-100/PBS and mounted with Fluoromount-G (SouthernBiotech).
To evaluate cell specific contribution of the drugs directly in OL differentiation and maturation, we used primary OPCs purified by magnetic cell sorting (MACS) from neonatal cortices (P4).

[2] = tested on: focal demyelination in the corpus callosum of adult mice; test: Lysolecithin (LPC) induced focal de/remyelination model in adult mice, oral administration in drinking water; assay type: in vivo; settings: 7 dpl, oral daily
Procedure: We weighted and anesthetized 4 months old RjOrl: SWISS mice (Janvier) with isoflurane (induced at 3%, and maintained at 1.2-1.6%). We induced focal demyelinating lesions by injecting 0.5 μl of a solution of 1% lysolecithin (LPC, Sigma in 0.9% NaCl solution) into the corpus callosum. To do so, a glass-capillary connected to a 10 μl Hamilton syringe was fixed and oriented through stereotaxic apparatus (coordinates: 1 mm lateral, 1.3 mm rostral to Bregma, 1.7 mm deep to brain surface). Animals were left to recover for a few hours in a warm chamber. […] Mice was perfused at 2% cold paraformaldehyde (thermos fisher) at 7 DPI.
For in-vivo cryosections (14-μm thick) of lesions, immunohistochemistry was performed after 30 mn drying at RT in a moist chamber. For myelin staining, ethanol treatment (100%) was performed for 10 mn at RT. Briefly, sections were permeabilized and blocked in a blocking buffer for 1 h (0.05% Triton X-100/10% normal goat serum/PBS). Then, cryosections were incubated overnight with the following primary antibodies at 4° C.: Mouse anti-APC (CC1 IgG2B; 1:100, calbiochem); Rabbit anti-Olig2 (1:500; Millipore); Mouse anti-Olig1 (IgG1; 1:500; NeuroMab); Rat anti-CD68 (1:500, AbD SEROTEC/BioRad); Rabbit anti-IBA1 (1:500, Wako Fujifilm); Mouse anti-MOOG (mlgG1, 1:20; Hybridoma). Then sections were washed 3 times in 0.05% Triton X-100/PBS and incubated 1 hour at RT with appropriate secondary antibodies conjugated with Alexa Fluor 488, 594 and 647 (1:1000; Molecular Probes or Thermo Fisher) and Dapi (1:5000 from working solution at 5 mg/ml; Life Technologies; D1306). Sections were washed 3 times in 0.05% Triton X-100/PBS and mounted with Fluoromount-G (SouthernBiotech).
We analyzed the lesions at 7 days post-lesion (7 dpl), when newly formed OLs have started to remyelinate the lesion in this model. The lesion area was identified by immunodetection of the high cellular density with DAPI staining, reduction of myelin with myelin oligodendrocyte glycoprotein (MOG), and abundance of microglia/macrophages with Iba1 and Cd68. We determined the effect of the drugs to promote oligodendrogenesis at the lesion site by combinatory immunodetection of Olig2, CC1 and Olig1, allowing to distinguish OPCs (Olig2^high/CC1^−/Olig1^nuclear-cyto cells) and three stages in OL differentiation: iOL1 (Olig2^high/CC1^high/Olig1^− cells), iOL2 (Olig2^high/CC1^high/Olig1^high-cyto cells), and mOL (Olig2^low/CC1^low/Olig1^low cells). […] Given the increase in OL differentiation by the drugs administration, without diminishing the pool of OPCs in the lesion area, we assessed for the proliferative status of OPCs, using Mcm2 and Ki67 proliferative markers, finding that both drugs promote a ˜2-fold increase in the density of proliferative OPCs (FIG. 4D) and in the proportion of proliferative OPCs (FIG. 4E).
To investigate the possible anti-inflammatory and pro-regenerative activity of these drugs, we performed staining for microglia/macrophages (Iba1+ cells), their active phagocytic status (Cd68+ cells), together with myelin (MOG) and cell density (DAPI) to identify the lesion area.

## CCCCOc1ccc(C(=O)CCN2CCCCC2)cc1.Cl [Sm5, Dyclonine hydrochloride]
[1]
  morphological complexity of OLs (PLP+ cells): strongly increased
[2]; sm5 at 5 μg per g, control 942.5±265.7, FIG. 4B
  number of oligodendroglial cells in the remyelinating area (Olig2+ cells): 1208±281.1 Olig2+ cells per mm^2
[2]; FIG. 4C
  density of OPCs (Olig2high/CC1−/Olig1nuclear-cyto cells) in the lesion area: did not change
[2]; FIG. 4F
  increase of the differentiation ratio (number of OLs per OPC) versus control: 2 fold
[2]; FIG. 4I
  pro-regenerative microglia (Arg1+ cells): corresponding increase
[2]; control 22.45%, FIG. 4H
  actively phagocytic microglia/macrophages (Cd68+ cells): reduction of their phagocytic population
[2]; control 25% (1 OLs for 4 OPCs), FIG. 4F
  differentiation ratio (number of OLs per OPC): 50%
[2]; control 33.64%, FIG. 4G
  surface occupied by Iba1+ microglia/macrophages in the lesion area: trend to reduce
[2]; versus control
  increase of each stage of OL differentiation (iOL1, iOL2 & mOL): more moderate effect only significant at the iOL2 stage
[2]; versus control, FIG. 4D
  increase in the density of proliferative OPCs (Mcm2, Ki67 markers): ~2 fold
[2]; versus control, FIG. 4E
  increase in the proportion of proliferative OPCs: ~2 fold
